Positions count from the first letter of the chain named.
What was measured:
[1] = biological target: T1, human α1R271Q-GlyR expressed in HEK 293 cells (Homo sapiens, UniProt P23415, R299Q); assay: Whole-cell patch-clamp, direct activation in the absence of glycine; type: cell-based; parameters: expressed in transfected cells; host or cells: HEK 293 (transient, electroporation; pcDNA1amp vector); conditions: R271Q, 0.01-1000 μM
T1 sequence (P23415 29-457 R299Q): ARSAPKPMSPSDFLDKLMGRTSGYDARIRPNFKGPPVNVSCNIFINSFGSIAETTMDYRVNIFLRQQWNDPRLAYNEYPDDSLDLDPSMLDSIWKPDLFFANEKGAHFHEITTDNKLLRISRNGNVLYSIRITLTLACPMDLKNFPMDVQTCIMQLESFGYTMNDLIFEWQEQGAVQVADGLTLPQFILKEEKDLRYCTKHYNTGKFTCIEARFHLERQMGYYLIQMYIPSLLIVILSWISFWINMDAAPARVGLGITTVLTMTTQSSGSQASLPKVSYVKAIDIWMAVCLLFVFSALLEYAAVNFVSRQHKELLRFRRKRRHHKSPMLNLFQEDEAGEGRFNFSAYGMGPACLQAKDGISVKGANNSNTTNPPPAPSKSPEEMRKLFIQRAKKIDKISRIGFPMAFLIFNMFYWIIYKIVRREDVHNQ
Protocol: Drug-containing vials were vigorously vortexed for 30min.
A new cell was used for each protocol and at least four different experiments were performed for each condition. The concentration of the diluent EtOH corresponding to the highest drug concentration used was 17150 μM.
Currents were filtered at 2 kHz.

[2] = biological target: T2, human α1R271L-GlyR expressed in HEK 293 cells (Homo sapiens, UniProt P23415, R299L); conditions: R271L
T2 sequence (P23415 29-457 R299L): T1 sequence (P23415 29-457 R299Q) with Q271L
Description: Human α1-, α1R271Q-, α1R271L-, α1R271K and α1S267I-GlyR subunits were transiently transfected into human embryonic kidney cells (HEK 293, ATCC, Manassas, USA). The wild type α1-GlyR -cDNA was cloned in pCIS2 (Invitrogen, San Diego, USA) vector and provided by Prof. Heinrich Betz (Max-Planck-Institut für Hirnforschung, Frankfurt am Main, Germany). For the plasmid cDNA of the mutated α1R271Q-, α1R271L-, α1R271K- and α1S267I-GlyR the eukaryotic expression vector pcDNA1amp (Invitrogen, San Diego, USA), under the control of cytomegalovirus promoter, was used. For site-directed mutagenesis, single stranded template cDNA was synthesized from M13 origin of replication and the mutations of arginine residue (R) at position 271 to glutamine (R271Q), leucine (R271L) or lysine (R271K) and mutation of serine residue (S) at position 267 to isoleucine (S267I) were generated using standard procedures. […] Wild type and mutated α1-GlyR subunits efficiently form homomeric receptors in heterologous expression systems.
HEK 293 cells were cultured in medium containing HAMS’F-12 (Biochrom, Berlin, Germany), supplemented with 10% fetal bovine serum (FBS, Biochrom, Berlin, Germany), 100 U ml^–1 penicillin and 100μgml^–1 streptomycin (Gibco BRL, Life Technologies, Karlsruhe, Germany) at 37°C in a 5% CO2/ 95% air incubator. For transfection cells were suspended in a buffer containing 50mM K2HPO4 (Fluka BioChemika, Seelze, Germany), 20mMK-acetate (Sigma-Aldrich, Taufkirchen, Germany) and 25mM MgSO4 (Sigma-Aldrich, Taufkirchen, Germany) at pH 7.35. To visualize transfected cells, they were co-transfected with cDNA encoding for enhanced green fluorescent protein (EGFP) contained in the pEGFP-N1 expression vector (Clontech, Palo Alto, USA). The corresponding cDNA (5μg for the GlyR and 2.5μg for EGFP) was added to 400μl of the cell suspension and the mixture was rapidly transferred into the electroporation cuvette. For transfection we used an electroporation device by EquiBio (Kent, UK) and a 4mm aluminum electrode electroporation cuvette (Peqlab, Erlangen, Germany).
The phenol derivative 4-chloropropofol ([…]) was provided as pure substance by Prof. Paul M. O’Neill (University of Liverpool, England), prepared as light-protected 1M stock solution in ethanol (EtOH, J.T.Baker, Griesheim, Germany) and stored in glass vessels at −20°C.
Drug-containing vials were vigorously vortexed for 30min. Patch electrodes were filled with an intracellular solution of [mM] KCl 140, MgCl2 2, EGTA 11, HEPES 10, glucose 11, CaCl2 1 with pH 7.3, adjusted with 1 M KOH and a bath solution contained [mM] NaCl 162, KCl 5.31, NaHPO4 0.85, KH2PO4 0.22, HEPES 15, glucose 6.11, pH 7.4 adjusted with 1 M NaOH. Osmolarity of both solutions was set at 280–300 mOsmol.
Whole-cell experiments were performed at a holding potential of −30 mV with a mean seal resistance of 1 GΩ. […] A fast liquid filament switch technique was used for the application of the agonist, presented in pulses of 2 s duration every 20 s. The liquid filament switch technique is able to exchange the solution passing an outside-out patch or small whole-cells within 1–2 ms. We calculated flow rate of background solution through the chamber with 3,4 ml/min corresponding to 4% of maximal pump rate. With regard to the chamber volume of 100 μl the exchange solution time within the chamber was assessed to approximately […], dependent on cell size accordingly. Piezo-switch and small diameter capillary (ID 0.15 mm) within the measurement chamber promoted the millisecond solution exchange. […] The induced current (I) by this saturating control solution was defined as Icontrol. […] The stability of the seal was controlled during the complete experiment via control of the seal resistance. A variation of 10-20% of the basic value was regarded as tolerable.

rat alpha 1 GlyR = rat alpha 1 GlyR in HEK293; cited from earlier work

Compound	direct activation [1]	Current amplitude [% of mean WT current amplitude] ± SEM [2] [%]	nH ± SEM (Hill coefficient), glycine activation [2]	Rise time ± SEM ([2]; 10-90% of Imax, monoexponential fit) [ms]	Mean current amplitude ± SEM ([2]; saturating glycine 300 mM) [pA]	Hill slope nH (rat alpha 1 GlyR)
4-chloro-2,6-dimethylphenol [4-chloropropofol]	only a marginal direct activation					
NCC(=O)O [glycine]		20.5±12	1.8±0.7	998 ± 129	336±51	3.3

— paper PMC3517478 (BMC Neurology, 2012)
